Experimental data taken from patent publication US6635668B1, “Imidazoline receptor binding compounds” (The University of North Carolina at Chapel Hill, priority 1998, dated 2003).
“Also recorded” adds a separate entry of the source. Where a name gives a salt, the structure may show the parent alone.

Legend:
imidazoline receptor = test: Imidazoline receptor binding (Tables 2 and 3); conditions: Table 2
imidazoline I2 sites [1] = test: Competition binding of 5 nM [3H]idazoxan to rat liver membranes; conditions: for Ki: 5 nM [3H]idazoxan (Kd 14 ± 2 nM), mean ± SD, compounds 4 and 8 mean ± 95% confidence intervals; for Hill Slope: inhibition of [3H]idazoxan binding
Procedure: Membrane preparation. Membranes were prepared in accordance with known techniques (R. Zonnenchein et al., Eur. J. Pharmacol. 190, 203-215 (1990)). […] The livers were weighed and minced with scissors before being homogenized at 4° C. in solution A (0.25 M sucrose containing 0.1 mM phenylmethyl sulfonyl fluoride 1:10 v/v) for 1 min using a Biospec homogenizer (Bartlesville, Okla., USA). The homogenate was centrifuged at 600×g for 10 min at 4° C. The resulting pellet was washed with solution A, discarded and the supernatant fractions were combined and centrifuged at 12,000×g for 30 min. This pellet was washed then resuspended in cold buffer B (50 mM Tris/HCl pH 7.4). Using a Bio-Rad (Hercules, Calif., USA) assay kit, the protein concentration was determined using bovine serum albumin as the standard according to the assay of Bradford et al. (Bradford, M. M., 1976. Anal. Biochem. 72, 248-254.). The preparation was stored at −80° C. at a concentration of 20 mg protein/ml. Competition binding studies. Competition experiments were performed in 1 ml buffer B containing 5 nM [^3H]idazoxan. […] In all experiments, bound and free radioligand were separated by vacuum filtration through Whatman GF/C filters and washed with 2×10 ml cold buffer B. Radioactivity on filters was determined by liquid scintillation spectroscopy using a Packard Tri-Carb 2100TR. […] Data analysis. Binding analyses, statistics and graphics were performed using Prism 2.01 (Graphpad Software, Inc., San Diego, Calif., USA). […] The calculated log of the octanol:water partition coefficient (ClogP) was calculated using MedChem Software 3.5 (Daylight Chemical Information Systems, New Orleans, La., USA).

Pneumocystis carinii = test: Anti-Pneumocystis carinii activity, P. carinii pneumonia in the rat; format: in vivo; conditions: for anti-P. carinii activity (in words): rat, compared with pentamidine
Procedure: Anti-Pneumocystis carinii activity. Induction, treatment and evaluation of P. carinii pneumonia in the rat was carried out according to methods described previously (Jones, S. K. et al., Antimicrob. Agents Chemother. 34, 1026-1030 (1990)). To summarize the scoring procedure, the mean histologic scores were determined by two examiners using a blinded protocol. P. carinii cysts were counted in the stained lung sections and assigned the following values; 0.5—less than 10 cysts counted per two fully examined sections; 1—scattered cysts with less than 10% of the lung tissue involved; 2—scattered cysts with limited intense focal involvement and 10 to 25% of lung tissue involved; 3—scattered cysts with numerous intense areas of focal involvement and 26 to 50% of lung tissue involved; 4—cysts found throughout the tissue with numerous intense focal areas of involvement having greater than 50% of lung tissue involved.

imidazoline I2 sites [2] = test: [3H]Idazoxan saturation binding in rat liver membranes; conditions: 22° C., 45 min, read-out: Kd for saturable binding
Procedure: Membrane preparation. Membranes were prepared in accordance with known techniques (R. Zonnenchein et al., Eur. J. Pharmacol. 190, 203-215 (1990)). Briefly, male Sprague-Dawley rats (Hilltop, Scottsdale, Pa., USA) weighing approximately 250-300 g were decapitated, their livers rapidly removed and immediately placed into 0.25 M cold sucrose solution. The livers were weighed and minced with scissors before being homogenized at 4° C. in solution A (0.25 M sucrose containing 0.1 mM phenylmethyl sulfonyl fluoride 1:10 v/v) for 1 min using a Biospec homogenizer (Bartlesville, Okla., USA). The homogenate was centrifuged at 600×g for 10 min at 4° C. The resulting pellet was washed with solution A, discarded and the supernatant fractions were combined and centrifuged at 12,000×g for 30 min. This pellet was washed then resuspended in cold buffer B (50 mM Tris/HCl pH 7.4). Using a Bio-Rad (Hercules, Calif., USA) assay kit, the protein concentration was determined using bovine serum albumin as the standard according to the assay of Bradford et al. (Bradford, M. M., 1976. Anal. Biochem. 72, 248-254.). The preparation was stored at −80° C. at a concentration of 20 mg protein/ml. Saturation binding studies. Binding studies were performed in triplicate in 1 ml buffer B containing [^3H]idazoxan (0.1-50 nM). […]

| Structure (SMILES) | Ki (imidazoline receptor) [µM] | Ki (imidazoline I2 sites [1]) [nM] | Hill Slope (imidazoline I2 sites [1]) | other results |
| --- | --- | --- | --- | --- |
| N=C(N)c1cccc(OCCCCCOc2cccc(C(=N)N)c2)c1 [001 KAO 011] | 0.158 | – | – | – |
| N=C(N)c1ccc2[nH]c3ccc(C(=N)N)cc3c2c1 [003 KAO 111] | 44.7 | – | – | – |
| N=C(N)c1ccc2[nH]c(CCCCc3nc4cc(C(=N)N)ccc4[nH]3)nc2c1 [BABB] | 5.53 | – | – | – |
| N=C(N)c1ccc2[nH]c(Cc3nc4cc(C(=N)N)ccc4[nH]3)nc2c1 [BABIM] | 7.51 | – | – | – |
| c1cc2[nH]c(CCCCc3nc4cc(C5=NCCN5)ccc4[nH]3)nc2cc1C1=NCCN1 [BIBB] | 44.8 | – | – | – |
| c1ccc(C2CC2)c(OCC2=NCCN2)c1 [Cirazoline, cirazoline, reference compound] | – | 3 ± 0.4 | – | – |
| N=C(N)c1ccc(OCCCCCOc2ccc(C(=N)N)cc2)cc1 [Compound 1, pentamidine, reference compound] | – | 1.4 ± 0.22 | −0.8 | mean histologic score (Pneumocystis carinii; rat lung sections, saline control 3.8 out of a possible 4.0): 1.3 |
| N=C(N)c1ccc(OCCCCCCOc2ccc(C(=N)N)cc2)cc1 [Compound 2] | – | 3.2 ± 0.36 | −1.2 | anti-P. carinii activity (in words) (Pneumocystis carinii): greater than pentamidine |
| c1cc(C2=NCCN2)ccc1OCCCCCOc1ccc(C2=NCCN2)cc1 [Compound 3] | – | 4.3 ± 1.09 | −0.8 | anti-P. carinii activity (in words) (Pneumocystis carinii): greater than pentamidine |
| N=C(N)c1ccc(OCCCCOc2ccc(C(=N)N)cc2)cc1 [Compound 4] | – | – | −0.8 | anti-P. carinii activity (in words) (Pneumocystis carinii): greater than pentamidine |
| COc1cc(C2=NCCN2)ccc1OCCCOc1ccc(C2=NCCN2)cc1OC [Compound 5] | – | 50.1 ± 1.06 | −0.9 | anti-P. carinii activity (in words) (Pneumocystis carinii): greater than pentamidine; also recorded: equally effective |
| COc1cc(C(=N)N)ccc1OCCCOc1ccc(C(=N)N)cc1OC [Compound 6] | – | ~3500 | −0.9 | anti-P. carinii activity (in words) (Pneumocystis carinii): greater than pentamidine; also recorded: equally effective |
| N=C(N)c1ccc(OCCCOc2ccc(C(=N)N)cc2)cc1 [Compound 7] | – | – | −0.8 | – |
| N=C(N)c1ccc(OCCCCCOc2ccc([N+](=O)[O-])cc2)cc1 [Compound 8] | – | 62 ± 25 | −0.8 | – |
| N=C(N)c1ccc(OCCCCCO)cc1 [Compound 9] | – | 319 ± 39.5 | −0.8 | anti-P. carinii activity (in words) (Pneumocystis carinii): no activity at all |
| COc1ccc(C(=N)N)cc1 [Compound 10, 4-methoxybenzamidine] | – | 228 ± 36.5 | −0.8 | – |
| N=C(N)c1ccc(O)cc1 [Compound 11, 4-hydroxybenzamidine] | – | ~30000 | −0.3 | anti-P. carinii activity (in words) (Pneumocystis carinii): no activity at all |
| N=C(N)c1ccccc1 [Compound 12, benzamidine] | – | 580 ± 61.3 | −0.8 | – |
| [3H]c1cc2c(cc1[3H])OC(C1=NCCN1)CO2 (stereo not drawn) [[^3H]idazoxan, (1,4-[6,7-^3H]-benzodioxan-2-yl)-2-imidazoline hydrochloride] | – | – | – | Kd (imidazoline I2 sites [2]): 14 ± 2 nM |

Now from value to compound, other results behind:

| Ki (imidazoline receptor) [µM] | Ki (imidazoline I2 sites [1]) [nM] | Hill Slope (imidazoline I2 sites [1]) | Structure (SMILES) | other results |
| --- | --- | --- | --- | --- |
| 18.1 | – | – | N=C(N)c1ccc2c(c1)[nH]c1cc(C(=N)N)ccc12 [DAP 092] | – |
| 0.63 | – | – | c1cc(-c2ccc(-c3ccc(C4=NCCN4)cc3)o2)ccc1C1=NCCN1 [DB 60] | – |
| 0.653 | – | – | N=C(N)c1ccc(-c2ccc(-c3ccc(C(=N)N)cc3)o2)cc1 [DB 75] | – |
| 0.236 | – | – | c1cc(-c2ccc(-c3ccc(C4=NCCCN4)cc3)o2)ccc1C1=NCCCN1 [DB 103] | – |
| 5.5 | – | – | CC(C)NC(=N)c1ccc(-c2ccc(-c3ccc(C(=N)NC(C)C)cc3)o2)cc1 [DB 181] | – |
| 65.6 | – | – | N=C(N)c1ccc2[nH]c(-c3ccc4[nH]c(-c5ccc(O)cc5)nc4c3)nc2c1 [DB 183] | – |
| 347 | – | – | N=C(N)c1ccc2nc(C3=CCC=C(c4nc5ccc(C(=N)N)cc5[nH]4)N3)[nH]c2c1 [DB 205] | – |
| 6.75 | – | – | N=C(NC1CCCC1)c1ccc(-c2ccc(-c3ccc(C(=N)NC4CCCC4)cc3)o2)cc1 [DB 244] | – |
| 3.79 | – | – | N=C(N)c1ccc(-c2ccc(-c3ccc(C(=N)N)cc3)[nH]2)cc1 [DB 262] | – |
| 0.111 | – | – | N=C(N)c1ccc(-c2ccc(-c3ccc(C(=N)N)cc3)s2)cc1 [DB 351] | – |
| – | > 5000 | – | Cc1ccc(N(CC2=NCCN2)c2cccc(O)c2)cc1 [Phentolamine, phentolamine, reference compound] | – |
